From paper PMC10187093, “Synthesis, in silico modelling, and in vitro biological evaluation of substituted pyrazole derivatives as potential anti-skin cancer, anti-tyrosinase, and antioxidant agents” (Journal of Enzyme Inhibition and Medicinal Chemistry, 2023)

test system: SK-MEL-28; assay: MTT antiproliferative/cytotoxicity assay, SK-MEL-28; type: cell-based, human; settings: Homo sapiens, SK-MEL-28, 48 h, melanoma, MTT, 48 h; read-out: IC50 SKMEL-28
Protocol: (§1) Human-derived GFP-expressing melanoma A375 and epidermoid carcinoma A431 cell lines were purchased from Angio-Proteomie (Boston, MA). Human melanoma carcinoma SK-MEL-28 and human immortalised keratinocytes (HaCaT) cell lines were acquired from American Type Culture Collection (ATCC; Manassas, VA). Human cutaneous SCC cell line SCC-12[192] was generously provided by Dr. James G. Rheinwald to Dr. Tatiana Efimova. Except SK-MEL-28, which was cultured in an RPMI-1640 medium supplemented with 5% FBS, all other human immortalised cell lines were grown and maintained in DMEM containing varying percentages of FBS; 5% FBS for A431, SCC-12, and HaCaT lines, and 10% FBS for A375. All culture media were routinely supplemented with 1% PEST 100X (100 U/mL penicillin, 100 μg/mL streptomycin), and cells were cultured in incubators maintained at 37 °C under an atmosphere of 95% humidity, 20% O2, and 5% CO2. The growth media of incubated cells were changed every 2–3 days until they attained 70–80% confluence, after which they were sub-cultured for experiments and re-passaging. DMSO was used as the vehicle to prepare a 10 mM stock solution of the test compounds.
(§2) Stock solutions (10 mM) were prepared by dissolving each compound to be screened in DMSO. From these stock solutions, escalating concentrations were prepared using the corresponding cell growth media as a diluent, and the cells (65–75% confluent) were treated with (0–40 µM) or without the drug in sext- to octuplicate and incubated for 48 h. All treatment protocols and controls were prepared as previously described.
(§3) The potency and cytotoxicity of the test compounds against two cutaneous melanoma (A375 and SK-MEL-28) and two non-melanoma (A431 and SCC-12) SC cell lines in addition to a control immortalised normal human epidermal keratinocytes (HaCaT) cell line were assessed by MTT assay as previously described.

In order of falling IC50:
1. Cc1[nH]nc(-c2ccccc2)c1Cl [P4, 4-Chloro-5-methyl-3-phenyl-1H-pyrazole]  62.3 ± 2.7 µM
2. Cc1n[nH]c2c1CCC2 [P2, 3-Methyl-1,4,5,6-tetrahydrocyclopenta[c]pyrazole]  42.6 ± 1.5 µM
3. Cc1cc(-c2ccccc2)n(-c2ccccc2)n1 [P14, 3-Methyl-1,5-diphenyl-1H-pyrazole]  33.3 ± 1.7 µM

test system: A375; assay: MTT antiproliferative/cytotoxicity assay, A375; type: cell-based, human; settings: Homo sapiens, A-375, 48 h, melanoma, MTT, 48 h; read-out: IC50 A375
Protocol: as §1, §2, §3

In order of falling IC50:
1. Cc1[nH]nc(-c2ccccc2)c1Cl [P4, 4-Chloro-5-methyl-3-phenyl-1H-pyrazole]  58.4 ± 4.5 µM
2. Cc1n[nH]c2c1CCC2 [P2, 3-Methyl-1,4,5,6-tetrahydrocyclopenta[c]pyrazole]  54.3 ± 1.6 µM
3. Cc1cc(-c2ccccc2)n(-c2ccccc2)n1 [P14, 3-Methyl-1,5-diphenyl-1H-pyrazole]  25.8 ± 2.7 µM

test system: not listed separately; assay: DPPH free radical scavenging assay; settings: not given
Protocol: An initial screen was done of all 25 derivatives at a concentration of 1 mM. […] Methanol was used as the diluent, and 100 µL of DPPH (200 µM; Sigma-Aldrich, St. Louis, MO) was added to each well. […] The scavenging capacity (SC) was calculated as SC% = ((ΔAcontrol – ΔAsample)/ΔAcontrol) × 100%, where ΔAcontrol was the absorbance of the reagent blank, and ΔAsample was the absorbance of the test samples. The control contained all reagents except the compounds, and all tests were performed in triplicate. Quercetin served as a positive control. The DPPH methanolic solution (1 mL) mixed with DMSO (5 µL) served as a negative control.

In the case of `Cc1cc(-c2ccccc2)n(-c2ccccc2)n1` [P14, 3-Methyl-1,5-diphenyl-1H-pyrazole], the “DPPH antioxidant activity (in words)” value is reported as “inactive”.

same assay, conditions: 1 mM

In order of rising “Percent Scavenging (DPPH)” value:
1. Cc1cc(-c2ccccc2)n(-c2ccccc2)n1 [P14, 3-Methyl-1,5-diphenyl-1H-pyrazole]  -23.93%
2. Cc1n[nH]c2c1CCC2 [P2, 3-Methyl-1,4,5,6-tetrahydrocyclopenta[c]pyrazole]  -5.84%
3. Cc1[nH]nc(-c2ccccc2)c1Cl [P4, 4-Chloro-5-methyl-3-phenyl-1H-pyrazole]  -0.84%

test system: GFP-A431; assay: MTT antiproliferative/cytotoxicity assay, A431; type: cell-based, human; settings: Homo sapiens, A-431, 48 h, non-melanoma, MTT, 48 h; read-out: IC50 GFP-A431
Protocol: (§4) Human-derived GFP-expressing melanoma A375 and epidermoid carcinoma A431 cell lines were purchased from Angio-Proteomie (Boston, MA). Human melanoma carcinoma SK-MEL-28 and human immortalised keratinocytes (HaCaT) cell lines were acquired from American Type Culture Collection (ATCC; Manassas, VA). […] The growth media of incubated cells were changed every 2–3 days until they attained 70–80% confluence, after which they were sub-cultured for experiments and re-passaging. DMSO was used as the vehicle to prepare a 10 mM stock solution of the test compounds.
(§5) Stock solutions (10 mM) were prepared by dissolving each compound to be screened in DMSO.

In order of rising IC50:
1. Cc1cc(-c2ccccc2)n(-c2ccccc2)n1 [P14, 3-Methyl-1,5-diphenyl-1H-pyrazole]  17.8 ± 0.5 µM
2. Cc1n[nH]c2c1CCC2 [P2, 3-Methyl-1,4,5,6-tetrahydrocyclopenta[c]pyrazole]  43.9 ± 2.1 µM
3. Cc1[nH]nc(-c2ccccc2)c1Cl [P4, 4-Chloro-5-methyl-3-phenyl-1H-pyrazole]  70.8 ± 6.2 µM

same assay, conditions: IC50 HaCaT divided by IC50 A431

For `Cc1cc(-c2ccccc2)n(-c2ccccc2)n1` [P14, 3-Methyl-1,5-diphenyl-1H-pyrazole], the “selectivity index (SI) A431” value was 2.0.

test system: SCC-12; assay: MTT antiproliferative/cytotoxicity assay, SCC-12; type: cell-based, human; settings: Homo sapiens, SCC12, 48 h, non-melanoma, MTT, 48 h; read-out: IC50 SCC-12
Protocol: as §4, §5

In order of falling IC50:
1. Cc1n[nH]c2c1CCC2 [P2, 3-Methyl-1,4,5,6-tetrahydrocyclopenta[c]pyrazole]  246 ± 37.3 µM
2. Cc1[nH]nc(-c2ccccc2)c1Cl [P4, 4-Chloro-5-methyl-3-phenyl-1H-pyrazole]  216 ± 13.4 µM
3. Cc1cc(-c2ccccc2)n(-c2ccccc2)n1 [P14, 3-Methyl-1,5-diphenyl-1H-pyrazole]  42.5 ± 2.8 µM

same assay, conditions: IC50 HaCaT divided by IC50 SCC-12

With `Cc1cc(-c2ccccc2)n(-c2ccccc2)n1` [P14, 3-Methyl-1,5-diphenyl-1H-pyrazole] the “selectivity index (SI) SCC-12” value was 0.8.

test system: HaCaT; assay: MTT cytotoxicity assay, noncancerous HaCaT keratinocytes; type: cell-based, human; settings: Homo sapiens, HaCaT; control noncancerous keratinocytes, MTT, 48 h; read-out: IC50 HaCaT
Protocol: as §1, §2, §3

In order of falling IC50:
1. Cc1[nH]nc(-c2ccccc2)c1Cl [P4, 4-Chloro-5-methyl-3-phenyl-1H-pyrazole]  76.1 µM
2. Cc1n[nH]c2c1CCC2 [P2, 3-Methyl-1,4,5,6-tetrahydrocyclopenta[c]pyrazole]  44.2 ± 1.1 µM
3. Cc1cc(-c2ccccc2)n(-c2ccccc2)n1 [P14, 3-Methyl-1,5-diphenyl-1H-pyrazole]  35.1 ± 2.8 µM

target: T1, mushroom tyrosinase (Agaricus bisporus, UniProt C7FF04); assay: In vitro mushroom tyrosinase inhibition assay; type: biochemical; settings: 500 µM, single-concentration screen; read-out: % Inhibition of tyrosinase
T1 construct: purchased Sigma-Aldrich Chemical Company (St. Louis, MO) and MP Biomedicals (Irvine, CA)
Protocol: The anti-tyrosinase potential of all the synthesised derivatives was determined by an enzymatic tyrosinase inhibition assay based on their ability to inhibit the substrate, L-tyrosine, from binding to the tyrosinase enzyme. […] Test samples were dissolved in DMSO at a concentration of 10 mM and then diluted to different concentrations with phosphate buffer (0.1 M, pH 6.8). Each well contained 40 µL of the sample with 80 µL of phosphate buffer solution (0.1 M, pH 6.8), 40 µL of tyrosinase enzyme (100 units/mL), and 40 µL L-tyrosine (2.5 mM). The mixture was incubated for 30 min at room temperature, and absorbance was measured at 490 nm. Each sample was accompanied by a sample blank containing all components except tyrosinase. […] The percentage of tyrosinase inhibition was calculated as follows: ((ΔAcontrol – ΔAsample)/ΔAcontrol) × 100. IC50 values denoted the sample concentration required to inhibit 50% tyrosinase activity (Table S1).

T1 sequence (C7FF04 1-392 limits assumed): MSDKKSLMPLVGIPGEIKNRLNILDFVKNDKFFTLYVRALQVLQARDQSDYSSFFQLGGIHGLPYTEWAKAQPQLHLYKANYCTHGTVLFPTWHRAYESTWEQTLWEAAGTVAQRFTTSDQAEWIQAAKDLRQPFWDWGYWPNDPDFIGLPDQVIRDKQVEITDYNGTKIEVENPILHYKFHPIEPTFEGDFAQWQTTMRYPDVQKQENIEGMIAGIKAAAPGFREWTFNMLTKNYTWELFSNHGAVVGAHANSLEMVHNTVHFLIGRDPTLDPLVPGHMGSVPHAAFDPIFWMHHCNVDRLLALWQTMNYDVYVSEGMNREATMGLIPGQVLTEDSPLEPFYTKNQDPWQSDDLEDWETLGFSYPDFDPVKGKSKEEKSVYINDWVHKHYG

In order of rising inhibition at 500 µM:
1. Cc1n[nH]c2c1CCC2 [P2, 3-Methyl-1,4,5,6-tetrahydrocyclopenta[c]pyrazole]  20.8%
2. Cc1[nH]nc(-c2ccccc2)c1Cl [P4, 4-Chloro-5-methyl-3-phenyl-1H-pyrazole]  68.7 ± 0.4%
3. Cc1cc(-c2ccccc2)n(-c2ccccc2)n1 [P14, 3-Methyl-1,5-diphenyl-1H-pyrazole]  97.4 ± 0.2%

same assay, conditions: > 500 = not biologically relevant; read-out: IC50 Value, mushroom tyrosinase inhibition (Table S1)

Compared with `Cc1n[nH]c2c1CCC2` [P2, 3-Methyl-1,4,5,6-tetrahydrocyclopenta[c]pyrazole], `Cc1[nH]nc(-c2ccccc2)c1Cl` [P4, 4-Chloro-5-methyl-3-phenyl-1H-pyrazole] is lower in IC50: > 500 µM for the first, 197 µM for the second.

same assay, conditions: L-tyrosine substrate; read-out: IC50 tyrosinase inhibition

`Cc1cc(-c2ccccc2)n(-c2ccccc2)n1` [P14, 3-Methyl-1,5-diphenyl-1H-pyrazole] gave an IC50 of 15.9 µM.
